According to US20040176294A1, “Use of thyroid-stimulating hormone to induce lipolysis” (priority 2003, published 2004):

Tests used:
[1] = tested on: male ob/ob mice; assay: Chronic treatment of ob/ob mice: serum lipid analysis; assay type: in vivo; details: 5 weeks of treatment, fasted 4 hours
Protocol: (§1) 11-week old male ob/ob mice were individually caged and given a standard lab chow (4% fat) with free access to food and water. Animals were assigned to a treatment group (n=7-8, average weight 54.3+/−0.3 g per group), kept on a 12 hour dark cycle (6 PM to 6 AM), and injected each day between 7 and 9 AM. Chow consumed by each animal was weighed twice weekly. All animals received treatments IP with an injection volume of 0.1 ml. […] Thyroid hormone (T4) was administered at 1.5 μg/mouse for 4 days, reduced to 1 [μg/mouse for 10 days, and returned to 1.5 μg/mouse for the next 14 days. The vehicle controls received sterile saline.
The study set used for the IPGTT was treated an additional 7 days before sacrifice (total treatment time of 5 weeks). Subject animals were fasted for 4 hours at the beginning of the light cycle, and serum was obtained at sacrifice under isoflurane anesthesia. Triglyceride and total cholesterol levels were determined with the Cholestech LDX blood analyzer (Cholestech Corporation, Hayward Calif.).

[2] = tested on: male ob/ob mice; assay: Chronic treatment of ob/ob mice: intraperitoneal glucose tolerance test (IPGTT); assay type: in vivo; details: 4 weeks of treatment; for baseline blood glucose: fasted four hours, n=4; for insulin sensitivity and glucose clearance versus vehicle: IPGTT glucose […]
Protocol: as §1
Following 4 weeks of daily treatment as described above, mice (n=4/group) were fasted for four hours immediately following the beginning of the light cycle, and a blood sample obtained before IP injection of a glucose solution (1.5 g/kg body weight). Blood samples were obtained at 20, 40, and 120 minutes following injection to evaluate changes in serum glucose and insulin. Glucose concentrations were determined with a Freestyle blood glucose monitor (Therasense Corp.), and insulin concentrations were determined with a commercial ELISA kit (Alpco Diagnostics, Windham N. H.).

[3] = tested on: male ob/ob mice; assay: Chronic treatment of ob/ob mice: liver steatosis histology score; assay type: in vivo; details: H&E sections, n=4, vehicle score 4
Protocol: as §1
Liver sections were dissected from all treatment groups described above and mounted in paraffin following fixation with NBS-formalin. Sections were mounted and stained with hematotoxylin and eosin (H&E) for visualization of hepatic structural changes. The extent of liver steatosis was evaluated on a four-point scale, […], with zero displaying no signs of liver steatotosis, and 4, representing pronounced macrovesicular and microvesicular steatosis.

[4] = tested on: male ob/ob mice; assay: Acute stimulation of lipolysis in vivo (serum glycerol and FFA); details: CL 1 mg/kg IP
Protocol: TSH, the β3-adrenoreceptor agonist CL 316,243 (CL), and saline vehicle were examined for stimulation of lipolysis in mice following an overnight fast. […] Lipolysis was assessed as the change in serum glycerol or FFA compared to baseline.
C57BL/6 male ob/ob mice, age 10 weeks, were grouped to normalize weight (n=7-8 for each treatment; average group weight=37.8 g+/−0.4 g). Mice were housed individually for 18 hours prior to treatment, at which time food was withdrawn, with free access to water given. At approximately 8 a.m., the subjects were anesthetized with halothane and blood samples taken by retro-orbital eye bleeds. The blood was allowed to clot, and the serum was separated by centrifugation and frozen for later analysis. Test substances were administered by IP injection in a volume of 0.1 ml, and the animals replaced in their cages for 2 hours with free access to water. At 2 hours, the mice were sacrificed and blood drawn by cardiac puncture.
For measuring free fatty acids in serum, the method previously described for measuring free fatty acids in conditioned medium was followed, with the following modifications. […] The absorbance at 530 nm was measured on the Wallac Victor2 Multilabel counter. […]
Sigma reagent A was reconstituted to 0.5× the recommended concentration. […] The absorbance at 530 nm was measured on the Wallac Victor2 Multilabel counter.

[5] = tested on: male ob/ob mice; assay: Chronic treatment of ob/ob mice: adipose tissue depot mass; assay type: in vivo; details: after 4 weeks of treatment, n=4
Protocol: as §1
Four animals from each group were analyzed for evaluation of changes in adipose tissue depot mass after 4 weeks of treatment. Following sacrifice, brown scapular fat (IBAT) and intra-abdominal fat were dissected and the tissues weighed. […] Elevated thyroid hormone levels are known to act to stimulate]BAT. […] The mesangial fat depot was dissected and removed from the colon for weight determination. Mesangial fat is white adipose tissue and is only readily visualized and dissected in obese mice. Mesangial white fat was removed by carefully stripping the fat, associated matrix and vascular supporting bed from the length of the colon.

[6] = tested on: male ob/ob mice; assay: in vivo; details: mouse
Protocol: as §1
(§2) After 25 days of treatment as described above, blood was sampled from all treated animals (n=7-8/group), serum separated, and analyzed for total T4 by a commercially available kit (Biocheck, Burlingame, Calif.).

[7] = tested on: human primary adipocytes; assay: CRE-luciferase reporter (cAMP) assay in primary human adipocytes; assay type: cell-based; details: 4 hours
From the text: (§3) 3T3 L1 fibroblasts were differentiated into adipocytes and the cells were transduced with recombinant adenovirus containing a reporter construct, a firefly luciferase gene under the control of cAMP response element (CRE) enhancer sequences. This assay system detects cAMP-mediated gene induction downstream of activation of Gs-coupled G-protein coupled receptors (GPCR's). […] In a separate experiment, undifferentiated 3T3 L1 fibroblasts were transduced with the recombinant adenovirus. […] In another experiment, human primary adipocytes were also transduced with the recombinant adenovirus containing a reporter construct.
(§4) Cells were cultured at 37° C. in an 8% CO2 humidified incubator. Cells were seeded in collagen-coated 96-well plates (Becton Dickinson, cat. # 356407) at a density of 5,000 cells per well. Two days later, differentiation medium was added as follows: DMEM high glucose containing 10% fetal bovine serum (Hyclone, cat. # SH30071), 1 μg/ml insulin, 1 μM dexamethasone, and 0.5 mM 3-isobutyl-methyl xanthine (ICN, cat. #195262). The cells were incubated at 37° C. in 8% CO2 for 4 days and the medium replaced with DMEM high glucose containing 10% fetal bovine serum and 1 μg/ml insulin. The cells were incubated at 37° C. in 8% CO2 for 3 days, then the medium was replaced with DMEM high glucose containing 10% fetal bovine serum.

[8] = tested on: differentiated 3T3 L1 adipocytes; assay: CRE-luciferase reporter (cAMP) assay in differentiated 3T3 L1 adipocytes; assay type: cell-based, murine; details: differentiated 3T3 L1 cells, 4 hours
From the text: as §3, §4

[9] = tested on: male ob/ob mice; assay: Chronic treatment of ob/ob mice: body weight and food intake; assay type: in vivo; details: daily IP treatment, 28 days
Protocol: as §1
Body weight changes were assessed as the percentage increase in body weight from the beginning of the study.

[10] = in vivo; parameters: species or system mice; details: male, ob/ob, mouse
Protocol: as §1, §2

C[C@H](Cc1ccc2c(c1)OC(C(=O)[O-])(C(=O)[O-])O2)NC[C@H](O)c1cccc(Cl)c1.[Na+].[Na+] [CL 316,243]
serum triglyceride [1]: 191 ± 9 mg/dL | total cholesterol [1]: 198 ± 7 mg/dL | baseline blood glucose [2]: 139 ± 9 mg/dL | insulin sensitivity and glucose clearance versus vehicle [2]: exhibited increased insulin sensitivity and increased clearance of the glucose load | average liver steatosis score [3]: 1 | serum glycerol and FFA levels [4]: significantly elevated serum glycerol and FFA levels | brown scapular fat (IBAT) mass [5]: 0.87 ± 0.03 g | mesangial white fat depot weight [5]: 1.53 ± 0.10 g | total T4 in serum [6]: 5.14 ± 0.19 µg/dL

CC(C)NCC(O)c1ccc(O)c(O)c1 (centres unmarked) [isoproterenol]
induction of luciferase expression / reporter gene [7]: 22 fold | induction of luciferase expression [8]: 50 fold

N[C@@H](Cc1cc(I)c(Oc2cc(I)c(O)c(I)c2)c(I)c1)C(=O)O [thyroxine]
serum triglyceride [1]: 297 ± 30 mg/dL | total cholesterol [1]: 231 ± 11 mg/dL | baseline blood glucose [2]: 252 ± 34 mg/dL | insulin sensitivity and glucose clearance versus vehicle [2]: did not exhibit increased glucose clearance | average liver steatosis score [3]: 3 | percentage increase in body weight from the beginning of the study [9]: 9.4+/−0.5% | brown scapular fat (IBAT) mass [5]: 1.26 ± 0.03 g | mesangial white fat depot weight [5]: 1.18 ± 0.11 g | concentration at 25 days [10]: 90.4 ng/mL
